# Legend:
# [1] = oral administration; extensive clearance via first pass metabolism; cited from earlier work
# [2] = cited from earlier work
# [3] = Human clinical trials of AERx-inhaled HCQ, pharmacokinetics blood sample analysis; type: in vivo; conditions: blood samples
# From the text: Hydroxychloroquine or HCQ, known as a therapeutic for asthma and other respiratory diseases (U.S. Pat. No. 6,572,858), and administered by the inhalation route, is characterized by unpleasant taste. Formulation of HCQ, either singularly, or in combination, using one or more of the methods described above increases the therapeutic benefit of inhaled HCQ to treat asthma and other respiratory diseases. […] Thus, it would be an improvement to develop a formulation that provides a sustained release of HCQ in the lung, prolonging interaction of HCQ with the desired receptors in the lung tissue. Formulation strategies include encapsulation in liposomes or use of polymeric microspheres or nanospheres that slowly degrade and release HCQ. Other formulation strategies outlined previously can also be envisioned for such a formulation.
absorption from the lung [3],SMILES,oral bioavailability [1],half-life ([2]; in vivo) [h],absorption time ([2]; inhalation delivery),tolerability ([2]; inhalation delivery)
–,CCCc1cc2c(s1)CN[C@@H]1CCc3cc(OC(C)=O)c(OC(C)=O)cc3[C@@H]21 [ABT-431],less than 4%,2 to 3,less than 10 minutes,poor
rapidly absorbed,"CCN(CCO)CCCC(C)Nc1ccnc2cc(Cl)ccc12 (centres unmarked) [HCQ, Hydroxychloroquine]",–,–,–,–

# From patent publication US20080138397A1, “PROCESSES FOR TASTE-MASKING OF INHALED FORMULATIONS” (Aradigm Corporation, priority 2006, published 2008)
